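Tested at 5 concentrations; 48 h exposure; 96-well plates; endpoints linearly interpolated, else capped at highest concentration. At the GI50, growth is halved. At the TGI there is no net growth.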
Assays:
Test in all cases: growth of human tumour cells (NCI), 48 h
SNB-75 CNS = tested on: SNB-75 CNS
HCT-116 colon = tested on: HCT-116 colon
BT-549 breast = tested on: BT-549 breast
MALME-3M melanoma = tested on: MALME-3M melanoma
MDA-N = tested on: MDA-N
M14 melanoma = tested on: M14 melanoma
SF-268 CNS = tested on: SF-268 CNS
SR leukemia = tested on: SR leukemia

| Structure (SMILES) | TGI (SNB-75 CNS) [µM] | TGI (HCT-116 colon) [µM] | TGI (BT-549 breast) [µM] | TGI (MALME-3M melanoma) [µM] | TGI (MDA-N) [µM] | TGI (M14 melanoma) [µM] | TGI (SF-268 CNS) [µM] | TGI (SR leukemia) [µM] | GI50 (MDA-N) [µM] | GI50 (M14 melanoma) [µM] | GI50 (SF-268 CNS) [µM] |
| --- | --- | --- | --- | --- | --- | --- | --- | --- | --- | --- | --- |
| COC(=O)/N=[N+](\[O-])C(c1ccc(OC)cc1)C1CCCCC1 (stereo not drawn) | 20.8 | 4.41 | 43 | 11.8 | 12 | 13.1 | 37.9 | – | – | – | – |
| Cc1cn(Cc2ccccc2CCl)c(=O)[nH]c1=O | 30 | 17.9 | – | 57 | – | 28.2 | 38.1 | – | – | – | – |
| CCCCOC(=O)C(O)Cc1ccoc1 (stereo not drawn) | > 100 | > 100 | > 100 | > 100 | > 100 | > 100 | > 100 | – | – | – | – |
| O=C(CC(C(=O)c1ccoc1)c1ccco1)c1ccco1 (stereo not drawn) | > 100 | > 100 | – | – | > 100 | > 100 | > 100 | > 100 | – | – | – |
| CC(=O)Nc1ccc2[nH]c(-c3cccc(F)c3)cc(=O)c2c1 | – | – | > 100 | > 100 | > 25.4 | > 100 | – | > 100 | – | – | – |
| CC1(C)Oc2ccc3c(=O)cc(-c4ccc(F)cc4)oc3c2C1C(=O)O (stereo not drawn) | – | > 100 | – | > 100 | > 100 | > 100 | > 100 | > 100 | – | – | – |
| C[C@H](O)C1CC(Cn2nnc3c(N)ncnc32)C1(C)C (stereo partly drawn) | > 100 | > 100 | – | – | > 100 | > 100 | > 100 | – | – | – | – |
| CN(CCc1ccc(N)cc1)[C@H]1CCCC[C@H]1N1CCCC1 | > 100 | > 100 | > 100 | > 100 | > 100 | > 100 | > 100 | – | – | – | – |
| C1=C\CCCCN2C[C@H]3CCCC/C=C\CCCCN4CC[C@@H]([C@H](CCCCCC/1)C4)[C@H](C3)C2 | 5.46 | 4.41 | 19.1 | 3.56 | 3.26 | – | 5.74 | > 19.8 | – | – | – |
| CC[C@@H](/C=C\CCC1(C[C@H](O)CCC=C(C)C)OCCO1)O[Si](C(C)C)(C(C)C)C(C)C | 64.9 | 38.6 | 63.6 | – | > 100 | 72.7 | 41.9 | 51.3 | – | – | – |
| CCOC(=O)CCC(NC(=O)c1ccc(N2CCN(c3c(C)nc(N)nc3N)CC2)cc1)C(=O)OCC (stereo not drawn) | > 100 | > 100 | > 100 | > 100 | > 54.7 | > 46 | > 100 | – | – | – | – |
| C=CC[C@H]1[C@H](O[Si](C)(C)C(C)(C)C)C=CC(=O)[C@@H]1CC(=O)N(Cc1ccccc1)Cc1ccccc1 | – | 54.5 | 51.6 | – | > 100 | > 100 | 93.4 | > 100 | – | – | – |
| Nc1nc(Cl)cc(Nc2cc(Cl)cc(Cl)c2)n1 | 39.5 | 33.3 | 45.4 | 37.8 | 48.8 | 35.4 | 40.4 | – | – | – | – |
| c1cc2c(c(-c3c4ccccc4nc4ccccc34)c1)CC1(CC2)OCCO1 | > 100 | > 100 | > 100 | > 100 | > 100 | > 100 | > 100 | – | – | – | – |
| CCC(=O)O[C@H]1CC[C@H]2[C@@H]3CCC4=C/C(=N/NC(=O)c5cccc6c(=O)c7ccccc7[nH]c56)CC[C@]4(C)[C@H]3CC[C@]12C | > 25 | – | > 25 | – | > 25 | > 25 | > 25 | > 25 | – | – | – |
| O=C1CCCCc2cccc(O)c21 | > 100 | > 100 | > 100 | > 100 | – | > 100 | > 100 | > 100 | – | – | – |
| COc1cc2c(c(OC)c1OC)-c1ccc(SC)cc1[C@H](OC(=O)c1ccccc1)CC2 | > 100 | 1.45 | > 100 | – | 0.0222 | – | > 100 | > 100 | – | – | – |
| CC1(C)CC(=O)c2c(nc3ccc4ccccc4c3c2-c2ccc(NC(=O)CCC(=O)Nc3ccc(-c4c5c(nc6ccc7ccccc7c46)CC(C)(C)CC5=O)cc3)cc2)C1 | > 100 | > 100 | – | – | > 100 | > 100 | > 100 | > 100 | – | – | – |
| COC(=O)c1c(C)cccc1CC1Cc2c(C)cccc2C1=O (stereo not drawn) | > 100 | > 100 | > 100 | > 100 | > 100 | > 100 | > 100 | – | – | – | – |
| O[C@@H]1C[C@@H]2N[C@@](O)(C[C@@H]2O)[C@H]1O | > 100 | > 100 | – | > 100 | > 100 | > 100 | > 100 | > 100 | – | – | – |

| Structure (SMILES) | TGI (SNB-75 CNS) [µM] | TGI (HCT-116 colon) [µM] | TGI (BT-549 breast) [µM] | TGI (MALME-3M melanoma) [µM] | TGI (MDA-N) [µM] | TGI (M14 melanoma) [µM] | TGI (SF-268 CNS) [µM] | TGI (SR leukemia) [µM] | GI50 (MDA-N) [µM] | GI50 (M14 melanoma) [µM] | GI50 (SF-268 CNS) [µM] |
| --- | --- | --- | --- | --- | --- | --- | --- | --- | --- | --- | --- |
| Cn1c(-c2cccs2)cc(-c2cccs2)c1-c1ccsc1 | > 100 | > 100 | > 100 | – | > 100 | > 100 | > 100 | > 100 | – | – | – |
| COc1ccc(CC2NC(=O)/C=C/CC(C(C)C3OC3c3ccccc3)OC(=O)C(CC(C)C)OC(=O)C(C)CNC2=O)cc1Cl (stereo not drawn) | > 0.1 | > 0.1 | – | > 0.1 | – | 0.00141 | > 0.1 | – | – | – | – |
| Cc1cc2c(c(C=NCc3ccccc3)c1)OC1(C=C2)Oc2ccccc2C(=O)N1C (stereo not drawn) | 75.8 | 61.6 | 62.5 | – | – | > 100 | 76.3 | 49.9 | – | – | – |
| O=C(CSCC(=O)N/N=C\c1ccc(-c2ccccc2)cc1)N/N=C\c1ccc(-c2ccccc2)cc1 | 41.6 | 21.4 | 66.3 | 64.1 | – | 91.2 | 53.9 | 26.8 | – | – | – |
| COc1cc2c(cc1OC)CC(N=[N+]=[N-])c1cc(OC)c(OC)cc1/C=C\2 (stereo not drawn) | > 100 | > 100 | 38.8 | – | 25.2 | > 100 | > 100 | > 100 | – | – | – |
| COC(=O)/C=c1/c2ccccc2n2nc3ccccc3c12 | – | > 100 | > 100 | > 100 | > 100 | > 100 | > 100 | 17.1 | – | – | – |
| COc1ccc2c(c1)c1c(n2CCN2CCCCC2)-c2ccccc2CC1 | 35.1 | 31 | 41.5 | 28.3 | – | 28.7 | 30 | 42.4 | – | – | – |
| COC(=O)CCC12CCC(O1)c1ccccc12 (stereo not drawn) | > 100 | > 100 | > 100 | – | > 100 | > 100 | – | > 100 | – | – | – |
| C=CC[C@H](C)CCC(=O)N1[C@H]2CC3CC[C@@]2(CS1(=O)=O)C3(C)C | – | > 100 | > 100 | > 100 | > 100 | > 100 | > 100 | > 100 | – | – | – |
| COc1cccc(-c2cc(=O)c3c(C)ccnc3[nH]2)c1 | 0.0417 | > 100 | > 100 | > 100 | – | > 100 | > 100 | 0.0396 | – | – | – |
| COCc1cc2c(cc1/C=C/[N+](=O)[O-])OCO2 | 31.9 | 34 | – | – | 32.6 | 30.6 | 40.4 | > 100 | – | – | – |
| CC(C)=CCC/C(C)=C/CC/C(C)=C/CC/C(C)=C/CC/C(C)=C\CC/C(C)=C/CC/C(C)=C/CC/C(C)=C/Cc1cc(O)ccc1O | 11.6 | 1.87 | 5.81 | – | – | 1.25 | 5.21 | 1.8 | – | – | – |
| COc1ccccc1N1CCN(Cn2c(=O)oc3cccnc32)CC1 | > 100 | > 100 | – | > 100 | > 100 | > 100 | > 100 | > 100 | – | – | – |
| CC1(C)N=C(N)N=C(N)N1c1cccc(OCCOc2ccc([N+](=O)[O-])cc2)c1 | – | > 100 | > 100 | > 100 | > 100 | > 100 | > 100 | > 100 | – | – | – |
| COc1ccc2c3c1OC1c4[nH]c5ccccc5c4CC4(O)C(C2)N(C)CCC314 (stereo not drawn) | > 100 | > 100 | > 100 | – | 32.7 | 32.3 | > 100 | 37 | – | – | – |
| CC12Cc3cc4c(cc3C1(c1ccc([N+](=O)[O-])cc1)OCCO2)OCO4 (stereo not drawn) | – | > 100 | 91.9 | > 100 | > 100 | > 100 | 71.6 | > 100 | – | – | – |
| CCOc1cc(NC(C)=O)ccc1C(=O)NN1C(=O)/C(=C/c2cc(OC)c(OC)c(OC)c2)N=C1c1ccccc1 | – | > 100 | 69.2 | > 100 | > 100 | > 100 | > 100 | > 100 | – | – | – |
| CNC1=CC(=O)C2=C(C1=O)[C@H]1CC[C@]3(C)C(=O)CC[C@H]3[C@@H]1CC2 | 27.8 | 35.7 | 36 | – | 25 | 28 | – | > 60.8 | – | – | – |
| CNC(=O)c1[nH]cnc1/N=N/N(C)N | > 100 | > 100 | > 100 | > 100 | > 100 | > 100 | > 100 | – | – | – | – |
| CCN(CC)C(=S)SS(=O)(=O)c1ccc([N+](=O)[O-])cc1 | – | – | > 100 | 37.9 | > 100 | 28.6 | > 100 | 54.5 | 30.2 | 14.9 | > 100 |
